According to patent USRE39062E1, “INGAP protein involved in pancreatic islet neogenesis” (McGill Unviersity, priority 1995, dated 2006):

What was measured:
Type in all cases: cell-based
pancreatic ductal cells = assay: Stimulation of pancreatic ductal cells to grow and proliferate
rat tumor duct cell line = assay: Growth and proliferation of a rat tumor duct cell line
hamster duct cell line = assay: Growth and proliferation of a hamster duct cell line
[1] = test system: hamster insulinoma cell line; assay: Growth and proliferation of a hamster insulinoma cell line
rat insulinoma cell line = assay: Growth and proliferation of a rat insulinoma cell line
[2] = test system: rat pancreatic tumor duct cells (ARIP); assay: 3H-thymidine incorporation into rat pancreatic tumor duct cells (ARIP); conditions: ARIP cells in Ham's F-12K media, 24 hrs, TCA precipitation
Protocol: (§1) The same synthetic peptide was tested for its ability to stimulate ^3H-thymidine incorporation into rat pancreatic tumor duct cells (ARIP) and hamster insulinoma tumor cells (HIT). 10 μCi of ^3H-thymidine at 80.4 Ci/mmole concentration was added to approximate 10^6 cells cultured in Ham's F-12K media. After 24 hrs, the cells were harvested and solubilized. Differential precipitation of the nucleic acids with trichloroacetic acid (TCA) was performed according to the procedure modified by Rosenberg et al. and the ^3H-thymidine proportion incorporated was calculated. […] The synthetic peptide had no effect on the control cell line HIT.

[3] = test system: hamster insulinoma tumor cells (HIT); assay: 3H-thymidine incorporation into hamster insulinoma tumor cells (HIT), control cell line; conditions: HIT control cell line in Ham's F-12K media, 24 hrs, TCA precipitation
Protocol: as §1

Substance: fragment of 20 amino acids of the sequence of SEQ ID NO: 2, from amino acid #103-#122: fragment of 20 amino acids of INGAP, SEQ ID NO: 2, amino acids #103-#122 (IGLHDPSHGTLPNGSGWKWS)
- stimulation of growth and proliferation (pancreatic ductal cells): sufficient to stimulate pancreatic ductal cells to grow and proliferate
- stimulation of growth and proliferation (rat tumor duct cell line): effect has been seen
- stimulation of growth and proliferation (hamster duct cell line): effect has been seen
- stimulation of growth and proliferation [1]: effect has been seen
- stimulation of growth and proliferation (rat insulinoma cell line): effect has been seen

Substance: synthetic peptide: synthetic peptide corresponding to amino acids 104-118 in SEQ ID NO:2 of the deduced hamster INGAP protein (GLHDPSHGTLPNGSG)
- increase in 3H-thymidine incorporation comparing to the absence of the synthetic peptide [2]: 2.4 fold
- effect on 3H-thymidine incorporation [3]: no effect
